Consider 1 compound from patent publication US6664271B1, “Immunopotentiator agents” (Eli Lilly and Company, priority 1999, dated 2003).

Each structure is given as a SMILES string. Marks after values point to notes of the source that are not given here.

The test system of data set [1] is chicken leukocytes. As to the kind of experiment: cells. The format is cell-based. As to the method: Various compounds of Formula I were evaluated for in vitro T-lymphocyte blastogenic activity with chicken leukocytes according to the steps described in the following procedure:
(a) Exsanguination step. The leukocytes were obtained from 3-6 week old Hubbard/Peterson broiler chickens. Initially, the chickens were rendered unconscious in a CO2 chamber. The chickens were then exsanguinated via cardiac puncture. In the exsanguination procedure, a syringe was connected to a needle, and the needle was inserted into the area at the base of the neck under the “V” formed by the breast and sternum. After the needle was properly inserted, continuous vacuum was applied to a syringe (connected to the needle) by pulling back on the plunger. It is important to promptly carry out this withdrawal action, because there is only a 10-15 seconds time period after the blood has starting flowing into the syringe before the blood coagulates, and becomes unusable. As soon as the syringe is full (or prior to complete filling if too much time has elapsed such that the blood begins to coagulate), the whole uncoagulated blood is transferred to a tube having the anticoagulant EDTA therein. The tube is then rotated to mix the whole blood and the EDTA. Alternatively, the whole blood can be withdrawn directly into a vacuum container already having EDTA therein, rather than into a syringe.
(b) Leukocyte isolation step. Numerous methods for isolating leukocytes from (uncoagulated) whole blood are known in the art. In a preferred method, the sterile whole blood was combined with methylcellulose (1.5:1). Any blood containing clots was discarded. The mixture was centrifuged at 30×g for ten minutes (300 rpm on Beckman GS-6R centrifuge). The top layer (leukocytes in supernatant) was decanted into a sterile 50 ml conical tube, while taking care to prevent contamination of the sample by red blood cells. The decanted layer was then centrifuged at 200×g for ten minutes (1500 rpm on the Beckman GS-6R centrifuge). The supernatant liquid was discarded, and the resulting cell “pellet” was retained.
The cells were then washed in a solution containing 10 ml PBS (phosphate buffered saline) and Gentamycin (gentamicin sulfate) at a concentration of 50 μg/ml. This solution was centrifuged at 100×g (1000 rpm on the Beckman centrifuge) for five minutes, and the supernatant liquid was discarded. The washing step (including the centrifuging at 100×g) was repeated to ensure complete removal of the methylcellulose. The use of media such as DMEM ([…]) was avoided in the washing steps, since such media may cause agglutination of the white blood cells. Finally, the cells were then suspended in an appropriate media, such as RPMI 1640 tissue cell culture medium, supplemented with phenol red, NaHCO3, and L-Glutamide. Supplemented RPMI 1640 is available from Sigma-Aldrich Chemical Co.
(c) Cell counting and cell viability step. The cells were counted and checked for viability using the Trypan Blue method of exclusion. 0.1 ml of the cell suspension was placed in a 4-5 ml small culture tube along with 0.7 ml HBSS (Hank's Buffered Saline Solution), available from Sigma-Aldrich, and 0.2 ml of a 0.4% solution of aqueous Trypan Blue stain, available from GIBCO BRL, of Grand Island, N.Y. The components were mixed thoroughly but gently, and allowed to sit for 5 minutes (no longer than 15 minutes). The components should not be exposed to the stain for extended periods of time, because such extended exposure may permit viable cells, as well as non-viable cells, to take up dye.
A cover slip was placed on a Bright Line hemacytometer, available from Howser Scientific, and 10 μl of the mixture from the tube was transferred to each chamber. Non-viable cells appear blue under a microscope. The viable cells in one of the 16-square corners of the hemacytometer were then counted. […]

Data set [2] deals with Actinobacillus pleuropneumoniae (App) 92C. Kind of data set: Seeder Pig Infection Model (Example 76). The format is in vivo. Conditions: contact pigs. An excerpt:
The compound prepared in Example 30, namely (S)-ethyl 1-(2-thiopheneacetyl)-3-piperidinecarboxylate, was utilized in a test formulation to investigate its efficacy to prevent or control the horizontal transmission of Actinobacillus pleuropneumoniae (App) 92C in a Seeder Pig Infection Model. The seeder pig model was chosen for the efficacy evaluation of the immunopotentiator compounds and analogs to prevent or control disease caused by App in recently weaned pigs. This model mimics a field outbreak of pneumonia in nursery pigs.
The animals tested were purchased from a commercial herd source known to be free of obvious disease and not recently on medication. There were a total of seventy-two (72) pigs, recently weaned and weighing in the approximate range of 15-20 pounds (6.8-9.1 kg). The challenged pigs were infected with an intranasal inoculation of Actinobacillus pleuropneumoniae (App), lyophilized #92C, a serotype 1, Iowa strain. The challenge material was a saline suspension containing a 2.5 hour log-phase growth broth culture, centrifuged and reconstituted at a concentration that contains 3×10^7 App 92C colony forming units (CFU) per pig in a 4 ml dose. An approved Animal Use Protocol governed the conduct of this trial.
Upon arrival, the pigs were double ear-tagged and divided into contact (48) and seeder (24) pig/groups. The seeder pigs were placed in two (2) groups of twelve (12) pigs per room (Groups 1). The contact pigs were placed in (8) groups of six (6) pigs per room (Groups 2-9). Lilly swine ration, AP11 SW and water were available ad libitum. All animals were observed daily and a room record was recorded.
Day −5 Pigs arrive for the acclimation period of a minimum of 5 days.
Day 0 Daily individual observations of clinical impression signs begin and continue throughout the experiment. These were scored on a 0 to 3 scale (0=normal: alert, responsive; 1=slight: dyspnea, rough coat, slow to react; 2=moderate: lethargic, rough coat, breathing difficulty; 3=severe: unresponsive, breathing distress (open mouth).
Day 0 Individual animal weights of the contacts were taken.
Day 0 2 hours prior to infection of the seeder pigs, the contact pigs were injected via the intraperitoneal route with the test formulations. Two (2) rooms of six (6) pigs were treated with each of the following dose levels: 0 μg/pig, 125 μg/pig, 250 μg/pig, and 500 μg/pig.
Day 0 Twenty-four (24) seeder pigs were challenged with a dose containing […] CFU of Actinobacillus pleuropneumoniae (App) 92C inoculum. The infected seeder pigs were then placed, 3 pigs per room, with the 6 treated contact pigs. To maximize the horizontal transmission of App, the living space in the rooms was reduced from 120 sq. ft. to 60 sq. ft., by placing partitions in the rooms.
Day +3 to +5 The seeder pigs were removed from all rooms. The pigs were euthanized, lung pathology was determined and lung cultures were taken. Moribund animals were euthanized. Any animals that succumbed to infection while on test were necropsied, lung lesions were scored and a sample was taken for bacterial isolation.
Day +14 The experiment was terminated. The contact pigs (Groups 2-9) were weighed, euthanized, and necropsied, with lung lesion scoring and bacterial culture assessment.
The test formulations were in an Acetate Buffered Saline vehicle. Samples were analyzed for potency. Data obtained was analyzed for weight gain, mortality, clinical impression scores, lung lesions, and bacteriologic recovery. Statistics were performed as appropriate to detect differences between groups.

As for `CCOC(=O)[C@H]1CCCN(C(=O)Cc2cccs2)C1` [Example 30, (S)-Ethyl 1-(2-Thiopheneacetyl)-3-piperidinecarboxylate], in data set [1] (Gallus gallus, Leukocyte, chicken leukocytes, read at 72 hours, read-out: MSC (Minimum Stimulatory Concentration)), the minimal effective concentration was determined as 0.1 µg/mL. Also, the “MTC (Maximum Tolerable Concentration prior to causing cytotoxicity)” value in data set [1] (Hubbard/Peterson broiler, chicken, 72 h) worked out at 10 µg/mL. Also, in data set [2] (125 μg/pig intraperitoneal), the “% Lung Consolidation” value is reported as 14.0%, the “% Lung Lesions” value was 41.5%, the “% Mortality” value was 16.6% and the “App Reisolation” value is recorded as 41.5. In addition, in data set [2] (250 μg/pig intraperitoneal), the “% Lung Consolidation” value is listed as 0.44%, the “% Lung Lesions” value was 0* %, the “% Mortality” value amounted to 0% and the “App Reisolation” value is listed as 0*. In data set [2] (500 μg/pig intraperitoneal), the “% Lung Consolidation” value was 4.0%, the “% Lung Lesions” value was found to be 42.0%, the “% Mortality” value amounted to 0% and the “App Reisolation” value was determined as 42.
